{
  "source": "patent US20130156728A1",
  "about": "“COMPOSITION FOR NEUROLOGICAL OR AUTOIMMUNE DISEASES” (National Institutes of Health (NIH), U.S. Dept. of Health …, priority 2010, published 2013)",
  "key": {"mice": {"test_system": "mice", "experiment": "Characterization of subacute MPTP model (striatal dopamine, splenocyte counts)", "format": "in vivo, mouse", "procedure": "To establish a subacute MPTP model, we tested administration of 10 mg/kg/day and 20 mg/kg/day MPTP for consecutive 5 days.\nData are represented as mean±SEM."}, "[1]": {"test_system": "humans with type 1 diabetes", "conditions": "injections; cited from earlier work"}, "chronic MPTP model": {"test_system": "chronic MPTP model", "experiment": "Vaccination in chronic MPTP model (striatal DA and DAT)", "format": "in vivo, C57BL/6 mice"}, "[2]": {"test_system": "mouse models of Alzheimer's disease", "conditions": "without adjuvant; cited from earlier work"}},
  "data": [
    {"molecule": "CN1CC=C(c2ccccc2)CC1", "note": "[MPTP, 1-Methyl-4-Phenyl-1,2,3,6-Tetrahydro-Pyridine]", "values": [
      {"measurement": "effect on striatal dopamine levels", "setting": "mice; 10 mg/kg/day MPTP for 5 days, four days after the last treatment", "result": "no obvious effect"},
      {"measurement": "decrease of striatal dopamine level compared to PBS treated mice", "setting": "mice; 20 mg/kg/day MPTP for 5 days, four days after the last treatment", "result": 70, "unit": "%"},
      {"measurement": "effect on splenocyte counts (immunotoxicity)", "setting": "mice; subacute MPTP, 10 and 20 mg/kg/day for 5 days", "result": "did not affect"}
    ]},
    {"molecule": "GAD65: isoform of glutamic acid decarboxylase, 65 kDa", "values": [
      {"measurement": "preservation of some insulin production", "setting": "[1]", "result": 30, "unit": "months"}
    ]},
    {"molecule": "glatiramer acetate [Copaxone (without adjuvant)]", "values": [
      {"measurement": "protection of striatal dopamine (DA) and dopamine transporter (DAT)", "setting": "chronic MPTP model", "result": "no protective effect"},
      {"measurement": "effect in mouse models of Alzheimer's disease", "setting": "[2]", "result": "beneficial"}
    ]}
  ]
}
